From ChEMBL document CHEMBL1137122, “Solution phase parallel synthesis and evaluation of MAPK inhibitory activities of close structural analogues of a Ras pathway modulator” (Bioorg Med Chem Lett, 2004)

Tests used:
[1] = target: T1, Serine/threonine-protein kinase RAF and Dual specificity mitogen-activated protein kinase kinase 1 (Raf/MEK) (Homo sapiens, UniProt P04049+Q02750); assay: Inhibition of EGF-stimulated Elk1-luciferase reporter assay in HeLa cells; format: functional, cell-based
HCT-116 [2] = assay: Antiproliferative activity was evaluated using HCT116 cells in WST-1 assay; format: functional; conditions: Homo sapiens
HCT-116 [3] = assay: Ability of compound to inhibit anchorage independent colony formation (soft agar growth assay) in HCT116 cells; format: functional; conditions: Homo sapiens
[4] = target: T1, Serine/threonine-protein kinase RAF and Dual specificity mitogen-activated protein kinase kinase 1 (Raf/MEK); assay: Inhibitory activity in EGF-stimulated Elk1-luciferase reporter assay in HeLa cells at 20 uM; format: functional, cell-based
[5] = target: T1, Serine/threonine-protein kinase RAF and Dual specificity mitogen-activated protein kinase kinase 1 (Raf/MEK); assay: Inhibitory activity in EGF-stimulated Elk1-luciferase reporter assay in HeLa cells at 15 uM; format: functional, cell-based
[6] = target: T1, Serine/threonine-protein kinase RAF and Dual specificity mitogen-activated protein kinase kinase 1 (Raf/MEK); assay: Inhibitory activity in EGF-stimulated Elk1-luciferase reporter assay in HeLa cells at 30 uM; format: functional, cell-based
HCT-116 [7] = assay: Antiproliferative activity was evaluated using HCT116 cells in WST-1 assay at 60 uM; format: functional; conditions: Homo sapiens
[8] = target: T1, Serine/threonine-protein kinase RAF and Dual specificity mitogen-activated protein kinase kinase 1 (Raf/MEK); assay: Inhibitory activity in EGF-stimulated Elk1-luciferase reporter assay in HeLa cells at 60 uM; format: functional, cell-based
HCT-116 [9] = assay: cells; conditions: Homo sapiens
Description: Antiproliferative activity was evaluated using HCT116 cells in WST-1 assay at 15 uM

T1 sequence (P04049 whole entry, looked up): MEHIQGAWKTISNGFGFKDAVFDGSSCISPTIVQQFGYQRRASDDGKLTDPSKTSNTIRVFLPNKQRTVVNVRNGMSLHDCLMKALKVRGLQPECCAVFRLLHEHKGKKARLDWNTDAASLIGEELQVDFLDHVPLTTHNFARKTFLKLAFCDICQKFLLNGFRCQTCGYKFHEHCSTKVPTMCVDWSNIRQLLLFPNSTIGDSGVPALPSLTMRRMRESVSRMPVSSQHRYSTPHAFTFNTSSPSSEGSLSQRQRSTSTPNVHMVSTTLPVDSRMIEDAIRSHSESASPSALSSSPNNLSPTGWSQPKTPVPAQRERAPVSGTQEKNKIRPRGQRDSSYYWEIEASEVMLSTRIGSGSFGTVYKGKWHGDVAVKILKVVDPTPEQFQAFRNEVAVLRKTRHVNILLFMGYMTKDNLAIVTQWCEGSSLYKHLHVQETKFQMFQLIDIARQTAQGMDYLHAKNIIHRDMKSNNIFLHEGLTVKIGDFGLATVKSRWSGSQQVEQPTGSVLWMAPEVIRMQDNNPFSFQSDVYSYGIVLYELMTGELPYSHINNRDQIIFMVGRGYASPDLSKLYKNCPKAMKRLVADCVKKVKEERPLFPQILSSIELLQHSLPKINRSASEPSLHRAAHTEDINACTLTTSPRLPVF
T1 sequence (Q02750 whole entry, looked up): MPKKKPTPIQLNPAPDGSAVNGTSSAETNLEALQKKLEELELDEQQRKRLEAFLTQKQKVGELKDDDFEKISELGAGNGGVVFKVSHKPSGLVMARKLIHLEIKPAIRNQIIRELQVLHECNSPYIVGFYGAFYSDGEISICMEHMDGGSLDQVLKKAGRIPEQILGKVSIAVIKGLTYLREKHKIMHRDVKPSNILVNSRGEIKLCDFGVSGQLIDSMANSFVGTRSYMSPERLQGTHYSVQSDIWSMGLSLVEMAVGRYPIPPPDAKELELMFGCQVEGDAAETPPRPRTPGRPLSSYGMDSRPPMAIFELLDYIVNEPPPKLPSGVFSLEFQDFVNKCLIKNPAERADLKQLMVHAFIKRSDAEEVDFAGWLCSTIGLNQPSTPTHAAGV

Structure (SMILES)	IC50 [1]	GI50 (HCT-116 [2])	GI50 (HCT-116 [3])	other results
O=C(CCCCc1ccccc1)N(CCc1ccccn1)Cc1ccc(OCc2ccccc2)c(O)c1	19.4 µM	31.6 µM		
COc1cc(CN(Cc2ccccc2Cl)C(=O)Cc2ccccn2)ccc1OCc1ccccc1	25.3 µM			
COc1cc(C(=O)N(CCc2ccccn2)Cc2ccccc2Cl)ccc1OCc1ccccc1	16.2 µM	29 µM	18.8 µM	
COc1cc(CN(CCc2ccccn2)C(=O)c2ccccc2Cl)ccc1OCc1ccccc1	20.6 µM	24.7 µM	22.1 µM	
COc1cc(CN(CCc2cccc(O)n2)C(=O)CCCCc2ccccc2)ccc1OCc1ccccc1	12.3 µM	22.6 µM	32.3 µM	
COc1cc(CN(CCc2ccccn2)C(=O)C(N)Cc2ccccc2)ccc1OCc1ccccc1 (centres undefined)				inhibition [4]: 14%
COc1ccc(CN(CCc2ccccn2)C(=O)c2ccccc2Cl)cc1OCc1ccccc1				inhibition [4]: 32%
COc1cc(CN(CCC2CCCCN2)C(=O)CCCc2ccccc2)ccc1OCc1ccccc1 (centres undefined)		5.4 µM	3.5 µM	inhibition [5]: 0%; inhibition [6]: 100%
O=C(CCCCc1ccccc1)N(CCc1ccccn1)Cc1ccc(OCc2ccccc2)c(OCCO)c1	14.2 µM	18.6 µM	14.4 µM	
COc1cc(CN(CCc2ccccn2)C(=O)C2CC2c2ccccc2)ccc1OCc1ccccc1 (trans isomer)	10.5 µM	23.9 µM	25.9 µM	
CNC(=O)c1cc(Oc2ccc(NC(=O)Nc3ccc(Cl)c(C(F)(F)F)c3)cc2)ccn1 [SORAFENIB]		5.4 µM	6.6 µM	
O=C(c1ccccc1Cl)N(CCc1ccccn1)CC1CCN(CCc2ccccc2)CC1				inhibition at 60 µM (HCT-116 [7]): 32%; inhibition [8]: 7%
COc1cc(CN(CCc2ccccn2)C(=O)CCCCc2ccccc2)ccc1OCc1ccccc1	9 µM	16.2 µM	20.6 µM	
COc1cc(CN(CCc2ccccn2)C(=O)COCc2ccccc2)ccc1OCc1ccccc1				inhibition [4]: 43%
COc1ccc(CN(CCc2ccccn2)C(=O)c2ccccc2Cl)cc1OC				inhibition [4]: 24%
COc1cc(CN(CCc2ccccn2)C(=O)CNCc2ccccc2)ccc1OCc1ccccc1				inhibition [4]: 6%
COc1cc(CN(CCc2ccccn2)C(=O)CCC(C)c2ccccc2)ccc1OCc1ccccc1 (centres undefined)	11.2 µM	13.2 µM	23.5 µM	
N#CC(=C(/N)Sc1ccccc1N)/C(C#N)=C(\N)Sc1ccccc1N			19.4 µM	inhibition at 15 µM (HCT-116 [9]): 35%
